From patent US11166460B2, “α-amino acrylate microbicide, and preparation method therefor and uses thereof” (priority 2017, dated 2021)
Where two headings read alike, the source gives them in different places.

Columns and labels:
Pellicularia sasakii = test: Fungicidal activity, fungi growth rate method, PS; type: cell-based; conditions: 50 μg/mL
[1] = tested on: tobacco mosaic virus (TMV); test: Anti-TMV inducing activity (induction mode), tobacco seedlings; type: in vivo; conditions: Tobacco mosaic virus, read-out: Anti-TMV activity, Induction effect (inhibition), 100 μg/mL, tobacco seedlings
Rhizoctonia cerealis = test: Fungicidal activity, fungi growth rate method, RC; type: cell-based; conditions: Ceratobasidium cereale, 50 μg/mL
Physalospora piricola = test: Fungicidal activity, fungi growth rate method, PP; type: cell-based; conditions: 50 μg/mL
[2] = tested on: tobacco mosaic virus (TMV); test: Anti-TMV curative activity (treatment mode), live friction inoculation on tobacco seedlings; type: in vivo; conditions: Tobacco mosaic virus, read-out: Anti-TMV activity, Curative effect (inhibition), 100 μg/mL, tobacco seedlings, checked on seventh day
Sclerotinia sclerotiorum = test: microbe, parasite or virus in culture; type: cell-based; conditions: Sclerotinia sclerotiorum, 50 μg/mL
wheat Gibberella zeae = test: microbe, parasite or virus in culture; type: cell-based; conditions: Fusarium graminearum
Alternaria solani = test: Fungicidal activity, fungi growth rate method, AS; type: cell-based; conditions: Alternaria solani, 50 μg/mL
[3] = tested on: Phytophthora infestans (Mont) de Bary; test: microbe, parasite or virus in culture; type: cell-based; conditions: Phytophthora infestans
[4] = tested on: tobacco mosaic virus (TMV); test: Anti-TMV protective activity (protection mode), live friction inoculation on tobacco seedlings; type: in vivo; conditions: Tobacco mosaic virus, read-out: Anti-TMV activity, Protection effect (inhibition)
[5] = tested on: tobacco mosaic virus (TMV); test: Anti-TMV inactivation activity (inactivation mode), compound mixed with TMV before inoculation of tobacco leaves; type: in vivo; conditions: Tobacco mosaic virus, read-out: Anti-TMV activity, Inactivation effect (inhibition)
Botrytis cinerea = test: Fungicidal activity, fungi growth rate method, BC; type: cell-based; conditions: Botrytis cinerea, 50 μg/mL
Cercospora arachidicola = test: Fungicidal activity, fungi growth rate method, CA; type: cell-based; conditions: Mycosphaerella arachidis, 50 μg/mL
[6] = read-out: Fungicidal activity, inhibition, PS
[7] = read-out: Fungicidal activity, inhibition, RC
[8] = read-out: Fungicidal activity, inhibition, PP
[9] = read-out: Fungicidal activity, inhibition, SS
[10] = read-out: Fungicidal activity, inhibition, GZ
[11] = read-out: Fungicidal activity, inhibition, AS
[12] = read-out: Fungicidal activity, inhibition, PI
[13] = read-out: Fungicidal activity, inhibition, BC
[14] = read-out: Fungicidal activity, inhibition, CA

| Structure (SMILES) | inhibition at 50 µg/mL (Pellicularia sasakii; [6]) [%] | inhibition at 100 µg/mL [1] [%] | inhibition at 50 µg/mL (Rhizoctonia cerealis; [7]) [%] | inhibition at 50 µg/mL (Physalospora piricola; [8]) [%] | melting point [°C] | inhibition at 100 µg/mL [2] [%] | inhibition at 50 µg/mL (Sclerotinia sclerotiorum; [9]) [%] | inhibition at 50 µg/mL (wheat Gibberella zeae; [10]) [%] | inhibition at 50 µg/mL (Alternaria solani; [11]) [%] | inhibition at 50 µg/mL [3, 12] [%] | inhibition at 100 µg/mL [4] [%] | inhibition at 100 µg/mL [5] [%] | inhibition at 50 µg/mL (Botrytis cinerea; [13]) [%] | inhibition at 50 µg/mL (Cercospora arachidicola; [14]) [%] | also measured |
| --- | --- | --- | --- | --- | --- | --- | --- | --- | --- | --- | --- | --- | --- | --- | --- |
| CNC(=O)/C(=C/c1ccccc1)NC(=O)c1ccccc1 [Compound 32, (Z)-N-[1-[(methylamino)carbonyl]-2-phenylethenyl]benzamide] | 13 | 10 | 4 | 12 | 185 to 187 | 0 | 80 | 6 | 5 | 16 | 58 | 25 | 11 | 16 | inhibition at 50 µg/mL (Pellicularia sasakii; read-out: Fungicidal activity (inhibition) against PS: Pellicularia sasakii): < 30%; inhibition at 50 µg/mL (Rhizoctonia cerealis; read-out: Fungicidal activity (inhibition) against RC: Rhizoctonia cerealis): < 20%; inhibition at 50 µg/mL (Physalospora piricola; read-out: Fungicidal activity (inhibition) against PP: Physalospora piricola): < 20%; inhibition at 50 µg/mL (Sclerotinia sclerotiorum; read-out: Fungicidal activity (inhibition) against SS: Sclerotinia sclerotiorum): 80%; inhibition at 50 µg/mL (wheat Gibberella zeae; read-out: Fungicidal activity (inhibition) against GZ: wheat Gibberella zeae): < 45%; inhibition at 50 µg/mL (Alternaria solani; read-out: Fungicidal activity (inhibition) against AS: Alternaria solani): < 30%; inhibition at 50 µg/mL ([3]; read-out: Fungicidal activity (inhibition) against PI: Phytophthora infestans (Mont) de Bary): < 25%; inhibition at 50 µg/mL (Botrytis cinerea; read-out: Fungicidal activity (inhibition) against BC: Botrytis cinerea): ≤ 20%; inhibition at 50 µg/mL (Cercospora arachidicola; read-out: Fungicidal activity (inhibition) against CA: Cercospora arachidicola): < 25% |
| CONC(=O)/C(=C/c1ccccc1)NC(=O)c1ccccc1 [Compound 33, (Z)-N-[1-[(methoxylamino)carbonyl]-2-phenylethenyl]benzamide] | 5 | 45 | 10 | 3 | 166 to 168 | 3 | 17 | 0 | 21 | 8 | 1 | 0 | 22 | 13 | – |
| COC(=O)[C@H](C)NC(=O)/C(=C/c1ccccc1)NC(=O)c1ccccc1 [Compound 34, (S,Z)-N-[1-[[1-(2-methyl propanoate)amino]carbonyl]-2-phenylethenyl]benzamide] | 0 | 50 | 3 | 0 | 147 to 148 | 0 | 56 | 16 | 21 | 5 | 0 | 0 | 24 | 16 | – |
| COC(=O)CCNC(=O)/C(=C/c1ccccc1)NC(=O)c1ccccc1 [Compound 35, (Z)-N-[1-[[1-(3-methyl propionate)amino]carbonyl]-2-phenylethenyl]benzamide] | 0 | 23 | 7 | 3 | 139 to 141 | 0 | 67 | 7 | 25 | 13 | 3 | 16 | 21 | 3 | – |
